In patent US11603378B2, “Azole silane compound” (Atotech Deutschland GmbH, priority 2018, dated 2023):

Legend:
Type in all cases: physicochemical
[1] = Stability test of alkaline storage solution (precipitation in dependence of pH); design: key to precipitation, storage solution: xx = strong precipitation; x = little, insignificant precipitation; 0 = no precipitation; conditions: for precipitation, storage solution: 50° C., 4 wt.-% in 20 wt.-% water / 76 wt.-% DEGBE
Protocol: C-2i) Alkaline Storage Solution: In a first stability test, stability of a compound of formula (Ib) obtained in Example A), 3) was further investigated in dependence of the pH. For that purpose, various storage solutions (according to the present invention and not according to the present invention) have been prepared each comprising 200 mL/L water (corresponding to approximately 20 wt.-%), 800 mL/L DEGBE (corresponding to approximately 76 wt.-%), and a compound of formula (Ib) in a total amount of 4 wt.-%, based on the total weight of the respective storage solution. The various pH values were obtained by adding sodium hydroxide or sulfuric acid. The stability was evaluated after 1, 7, and 15 days by carefully determining the presence of any precipitates. During the stability tests, the temperature of each storage solution was 50° C.

[2] = Stability test of aqueous working solution (precipitation at various pH); design: key: xx = strong precipitation; x = little, insignificant precipitation; 0 = no precipitation; conditions: 50° C., approx. 1 wt.-%, 250 mL/L storage solution pH 11 + 750 mL/L water
Protocol: C-2ii) Aqueous Working Solution:
In a second stability test, stability of a compound of formula (Ib) also obtained in Example A), 3) was investigated at various pH values but with lower concentration compared to C-2i.
For that purpose, various working solutions (according to the present invention and not according to the present invention) have been prepared each comprising 250 mL/L of storage solution with pH 11 as described above under item C-2i and 750 mL/L water such that the compound of formula (Ib) was present in an total amount of approximately 1 wt.-%, based on the total weight of the respective working solution. The various pH values were obtained by adding sulfuric acid. The stability was evaluated after 14 days by carefully determining the presence of precipitates. During the stability tests, the temperature of each storage solution was kept constant at 50° C.

[3] = Solubility test: time until 50 g/L of compound is fully dissolved in glycol ether solvent; conditions: approx. 22° C., constant stirring, test carried out for 30 minutes; for t [min] DEGBE (time until fully dissolved): 50 g/L in diethylene glycol monobutyl ether; for t [min] EGBE (time until fully dissolved): 50 g/L in ethylene glycol monobutyl ether
Protocol: In a solubility test, solubility in diethylene glycol monobutyl ether (DEGBE) and ethylene glycol monobutyl ether (EGBE) as solvents was tested at approximately 22° C. under constant stirring. For that, the azole silane compound of Formula (Ia), obtained in Example A), 1), and the reference compound of formula (X) were dissolved in respective samples (mixtures).
In each solubility test the time “t” was determined until an amount of the respective compound in its highly viscous state, corresponding in each case to a concentration of 50 g/L of the azole silane compound (approximately corresponding to 5 wt.-%, based on the total weight of a respective test composition), was fully dissolved in the respective solvent. Each solubility test was carried out for 30 minutes.

CO[Si](CCCOCC(O)CSc1nnc(N)[nH]1)(OC)OC (stereo not shown) [formula (Ib)]
stability in DEGBE storage solution (in words) ([1]; comparatively high pH, concentrations of approximately 4 wt.-%): stable
precipitation, storage solution ([1]; pH 4, 1 d): xx
precipitation, storage solution ([1]; pH 4, 7 d): xx
precipitation, storage solution ([1]; pH 4, 15 d): xx
precipitation, storage solution ([1]; pH 7, 1 d): xx
precipitation, storage solution ([1]; pH 7, 7 d): xx
precipitation, storage solution ([1]; pH 7, 15 d): xx
precipitation, storage solution ([1]; pH 10, 1 d): x
precipitation, storage solution ([1]; pH 10, 7 d): x
precipitation, storage solution ([1]; pH 10, 15 d): x
precipitation, storage solution ([1]; pH 11, 1 d): 0
precipitation, storage solution ([1]; pH 11, 7 d): 0
precipitation, storage solution ([1]; pH 11, 15 d): 0
precipitation, storage solution ([1]; pH 12, 1 d): 0
precipitation, storage solution ([1]; pH 12, 7 d): 0
precipitation, storage solution ([1]; pH 12, 15 d): 0
precipitation, working solution ([2]; pH 4, after 14 days): xx
precipitation, working solution ([2]; pH 6, after 14 days): 0
precipitation, working solution ([2]; pH 7, after 14 days): 0
precipitation, working solution ([2]; pH 8, after 14 days): x
precipitation, working solution ([2]; pH 10, after 14 days): xx

CO[Si](CCCOCC(O)CSc1nnc(N)s1)(OC)OC (stereo not shown) [formula (Ia)]
t [min] DEGBE (time until fully dissolved) [3]: 12 min
t [min] EGBE (time until fully dissolved) [3]: 10 min

CO[Si](CCCSc1nnc(N)[nH]1)(OC)OC [formula (X), reference compound]
t [min] DEGBE (time until fully dissolved) [3]: 25 min
t [min] EGBE (time until fully dissolved) [3]: > 30 min
